Assay results reported in ChEMBL document CHEMBL6096675 (J Med Chem, 2025).

Experiments:
[1] = Antiproliferative activity against human […] NCI-H1975 cells assessed as inhibition of cell growth measured after 7 days by WST-8 assay; type: functional; details: NCI-H1975, 168 h, time 7 day
[2] = Plasma concentration in SCID mouse xenografted with human NCI-H838 cells at 10 mg/kg, iv measured after 24 hrs by LC-MS/MS analysis; type: ADME, organism-based
[3] = Plasma concentration in mouse xenografted with human MV4-11 cells at 30 mg/kg, iv single dose measured after 24 hrs by LC-MS/MS analysis; type: ADME, organism-based
[4] = Drug uptake in tumor of mouse xenografted with human MV4-11 cells at 30 mg/kg, iv single dose measured after 24 hrs by LC-MS/MS analysis; type: ADME, organism-based, Neoplasm; details: read-out: Drug uptake
[5] = Cmax in rat at 1 mg/kg, iv; type: ADME, organism-based; details: in vivo
[6] = Metabolic stability in rat liver microsomes assessed as half life; type: ADME, Microsome
[7] = Antiproliferative activity against human SMARCA4-deficient NCI-H838 cells assessed as maximal inhibition of cell growth measured after 7 days by WST-8 assay relative to control; type: functional; details: time 7 day
NCI-H838 [8] = assay: In vivo anti-tumor activity against human NCI-H838 cells xenografted in SCID mouse assessed as assessed as inhibition of tumor growth at 10 mg/kg, iv measured after 3 weeks relative to control; type: functional; details: NCI-H838, 504 h, read-out: TGI
[9] = Plasma stability in rat plasma assessed as half life; type: ADME, cell-free
Cytochrome P450 3A4 = Cytochrome P450 3A4 (Homo sapiens, UniProt P08684); assay: Inhibition of CYP3A4 (unknown origin) using midazolam as substrate; type: ADME
[10] = Drug uptake in tumor of mouse xenografted with human H838 cells at 10 mg/kg, iv single dose measured after 6 hrs by LC-MS/MS analysis; type: ADME, organism-based, Neoplasm, NCI-H838; details: read-out: Drug uptake
SK-MEL-28 = assay: Antiproliferative activity against human SMARCA4-wild type SK-MEL-28 cells assessed as maximal inhibition of cell growth measured after 7 days by WST-8 assay relative to control; type: functional; details: time 7 day
[11] = Drug uptake in tumor of human NCI-H838 cells xenografted SCID mouse model at 10 mg/kg, iv measured after 96 hrs by LC-MS/MS analysis; type: ADME, organism-based, Neoplasm; details: read-out: Drug uptake
[12] = Antiproliferative activity against human SMARCA4-deficient NCI-H1693 cells assessed as inhibition of cell growth measured after 7 days by WST-8 assay; type: functional; details: NCI-H1693, 168 h, time 7 day
[13] = Drug uptake in tumor of human NCI-H838 cells xenografted SCID mouse model at 10 mg/kg, iv measured after 24 hrs by LC-MS/MS analysis; type: ADME, organism-based, Neoplasm; details: read-out: Drug uptake
NCI-H838 [14] = assay: In vivo anti-tumor activity against human NCI-H838 cells xenografted in SCID mouse assessed as assessed as inhibition of tumor growth at 30 mg/kg, iv measured after 3 weeks relative to control; type: functional; details: NCI-H838, 504 h, read-out: TGI
[15] = Plasma concentration in SCID mouse xenografted with human NCI-H838 cells at 10 mg/kg, iv measured after 96 hrs by LC-MS/MS analysis; type: ADME, organism-based
[16] = Drug uptake in tumor of human NCI-H838 cells xenografted SCID mouse model at 10 mg/kg, iv measured after 168 hrs by LC-MS/MS analysis; type: ADME, organism-based, Neoplasm; details: read-out: Drug uptake
[17] = Clearance in rat at 1 mg/kg, iv; type: ADME, organism-based; details: in vivo
[18] = Toxicity in SCID mouse xenografted with human H838 cells assessed as toxicity signs at 30 mg/kg, iv measured after 3 weeks; type: organism-based; details: in vivo, 504 h
Cytochrome P450 2C9 = Cytochrome P450 2C9 (Homo sapiens, UniProt P11712); assay: Inhibition of CYP2C9 (unknown origin); type: ADME
[19] = Half life in mouse at 1 mg/kg, iv; type: ADME, organism-based; details: in vivo
Cytochrome P450 2B6 = biological target: T1, Cytochrome P450 2B6 (Homo sapiens, UniProt P20813); assay: Inhibition of CYP2B6 (unknown origin); type: ADME
T1 sequence (P20813 whole entry): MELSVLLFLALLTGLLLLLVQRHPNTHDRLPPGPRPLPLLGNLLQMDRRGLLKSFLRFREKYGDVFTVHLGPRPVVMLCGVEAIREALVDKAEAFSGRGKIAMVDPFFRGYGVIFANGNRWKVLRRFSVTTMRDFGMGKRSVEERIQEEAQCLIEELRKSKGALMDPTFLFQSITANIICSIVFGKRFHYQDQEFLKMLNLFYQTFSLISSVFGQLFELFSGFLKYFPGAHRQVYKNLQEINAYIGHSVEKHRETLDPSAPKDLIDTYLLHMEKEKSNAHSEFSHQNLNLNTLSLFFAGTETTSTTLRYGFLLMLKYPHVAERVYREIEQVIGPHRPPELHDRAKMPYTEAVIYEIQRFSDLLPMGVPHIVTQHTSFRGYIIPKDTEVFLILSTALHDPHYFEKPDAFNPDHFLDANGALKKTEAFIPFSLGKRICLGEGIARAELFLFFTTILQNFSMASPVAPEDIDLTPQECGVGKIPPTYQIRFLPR

Cytochrome P450 2D6 = Cytochrome P450 2D6 (Homo sapiens, UniProt P10635); assay: Inhibition of CYP2D6 (unknown origin); type: ADME
SK-MEL-5 = assay: Antiproliferative activity against human SMARCA4-deficient SK-MEL-5 cells assessed as maximal inhibition of cell growth measured after 7 days by WST-8 assay relative to control; type: functional; details: time 7 day
NCI-H1792 = assay: Antiproliferative activity against human SMARCA4-wild type NCI-H1792 cells assessed as inhibition of cell growth measured after 7 days by WST-8 assay; type: functional; details: NCI-H1792, 168 h, time 7 day
[20] = Antiproliferative activity against human SMARCA4-deficient NCI-H1944 cells assessed as maximal inhibition of cell growth measured after 7 days by WST-8 assay relative to control; type: functional; details: time 7 day
[21] = Plasma concentration in mouse xenografted with human MV4-11 cells at 30 mg/kg, iv single dose measured after 168 hrs by LC-MS/MS analysis; type: ADME, organism-based
[22] = AUC (0 to 24hrs) in mouse at 1 mg/kg, iv; type: ADME, organism-based; details: in vivo
[23] = Plasma stability in human plasma assessed as half life; type: ADME, cell-free
[24] = Drug uptake in tumor of human NCI-H838 cells xenografted SCID mouse model at 10 mg/kg, iv measured after 48 hrs by LC-MS/MS analysis; type: ADME, organism-based, Neoplasm; details: read-out: Drug uptake
[25] = Cmax in mouse at 1 mg/kg, iv; type: ADME, organism-based; details: in vivo
[26] = Antiproliferative activity against human SMARCA4-deficient NCI-H838 cells assessed as inhibition of cell growth measured after 7 days by WST-8 assay; type: functional; details: NCI-H838, 168 h, time 7 day
[27] = Drug uptake in tumor of mouse xenografted with human MV4-11 cells at 30 mg/kg, iv single dose measured after 168 hrs by LC-MS/MS analysis; type: ADME, organism-based, Neoplasm; details: read-out: Drug uptake
[28] = Drug uptake in tumor of mouse xenografted with human H838 cells at 10 mg/kg, iv single dose measured after 48 hrs by LC-MS/MS analysis; type: ADME, organism-based, Neoplasm, NCI-H838; details: read-out: Drug uptake
[29] = biological target: SWI/SNF-related matrix-associated actin-dependent regulator of chromatin subfamily A member 2 (Homo sapiens, UniProt P51531); assay: Inhibition of human SMARCA2 by TR-FRET assay
Chain of SWI/SNF-related matrix-associated actin-dependent regulator of chromatin subfamily A member 2 (P51531 whole entry): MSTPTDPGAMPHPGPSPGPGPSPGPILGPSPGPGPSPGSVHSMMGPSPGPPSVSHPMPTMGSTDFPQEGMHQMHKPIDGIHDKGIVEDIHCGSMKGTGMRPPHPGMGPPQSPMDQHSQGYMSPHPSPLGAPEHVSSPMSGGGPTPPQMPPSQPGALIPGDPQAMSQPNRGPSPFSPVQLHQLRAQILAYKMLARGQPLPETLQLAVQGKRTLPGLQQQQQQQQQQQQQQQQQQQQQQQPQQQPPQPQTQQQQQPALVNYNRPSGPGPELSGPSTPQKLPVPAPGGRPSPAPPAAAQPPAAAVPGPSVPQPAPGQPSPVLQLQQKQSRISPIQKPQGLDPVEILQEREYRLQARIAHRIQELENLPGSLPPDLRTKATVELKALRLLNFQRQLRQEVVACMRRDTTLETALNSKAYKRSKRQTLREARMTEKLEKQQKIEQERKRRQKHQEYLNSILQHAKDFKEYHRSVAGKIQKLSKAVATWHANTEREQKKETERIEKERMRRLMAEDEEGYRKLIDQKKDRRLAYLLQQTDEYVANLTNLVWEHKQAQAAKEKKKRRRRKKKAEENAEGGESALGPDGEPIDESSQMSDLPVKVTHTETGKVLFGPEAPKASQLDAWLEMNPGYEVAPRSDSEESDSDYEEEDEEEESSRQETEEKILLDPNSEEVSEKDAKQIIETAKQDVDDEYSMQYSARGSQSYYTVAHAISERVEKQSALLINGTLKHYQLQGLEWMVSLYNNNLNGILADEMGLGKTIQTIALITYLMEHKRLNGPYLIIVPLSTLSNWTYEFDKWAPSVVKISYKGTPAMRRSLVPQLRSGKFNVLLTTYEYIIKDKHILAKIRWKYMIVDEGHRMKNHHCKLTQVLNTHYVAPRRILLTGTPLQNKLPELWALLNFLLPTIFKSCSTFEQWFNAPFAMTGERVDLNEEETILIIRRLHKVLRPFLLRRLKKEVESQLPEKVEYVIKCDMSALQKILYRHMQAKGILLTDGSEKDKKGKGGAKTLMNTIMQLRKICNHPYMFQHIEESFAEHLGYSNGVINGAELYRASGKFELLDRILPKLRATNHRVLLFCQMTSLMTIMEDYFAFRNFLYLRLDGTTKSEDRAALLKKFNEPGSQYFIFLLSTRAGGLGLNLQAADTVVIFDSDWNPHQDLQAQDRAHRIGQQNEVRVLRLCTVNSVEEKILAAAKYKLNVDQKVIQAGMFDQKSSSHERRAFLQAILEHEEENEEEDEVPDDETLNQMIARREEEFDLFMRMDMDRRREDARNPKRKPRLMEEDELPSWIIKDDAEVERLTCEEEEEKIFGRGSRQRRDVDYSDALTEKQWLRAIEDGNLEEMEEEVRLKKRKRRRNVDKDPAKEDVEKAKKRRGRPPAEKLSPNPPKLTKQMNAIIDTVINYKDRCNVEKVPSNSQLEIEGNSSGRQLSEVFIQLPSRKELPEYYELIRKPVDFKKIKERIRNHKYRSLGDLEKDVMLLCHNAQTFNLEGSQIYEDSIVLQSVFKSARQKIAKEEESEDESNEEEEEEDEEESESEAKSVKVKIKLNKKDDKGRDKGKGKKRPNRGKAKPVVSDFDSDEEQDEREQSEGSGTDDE

Chain of Cytochrome P450 3A4 (P08684 whole entry): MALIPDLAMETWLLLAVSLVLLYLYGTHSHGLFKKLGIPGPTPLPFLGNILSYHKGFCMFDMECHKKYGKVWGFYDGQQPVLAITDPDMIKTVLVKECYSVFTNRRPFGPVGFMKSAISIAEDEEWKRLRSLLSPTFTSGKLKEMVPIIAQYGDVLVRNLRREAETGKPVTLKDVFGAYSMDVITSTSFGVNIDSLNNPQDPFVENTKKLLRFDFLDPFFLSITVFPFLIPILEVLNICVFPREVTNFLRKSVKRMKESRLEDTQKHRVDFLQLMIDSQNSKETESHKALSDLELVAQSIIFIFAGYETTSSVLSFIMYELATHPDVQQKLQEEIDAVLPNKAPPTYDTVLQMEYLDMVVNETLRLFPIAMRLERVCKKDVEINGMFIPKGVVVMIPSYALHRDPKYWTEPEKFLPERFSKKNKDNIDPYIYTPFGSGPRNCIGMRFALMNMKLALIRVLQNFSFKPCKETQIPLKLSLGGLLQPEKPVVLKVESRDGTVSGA
Chain of Cytochrome P450 2D6 (P10635 whole entry): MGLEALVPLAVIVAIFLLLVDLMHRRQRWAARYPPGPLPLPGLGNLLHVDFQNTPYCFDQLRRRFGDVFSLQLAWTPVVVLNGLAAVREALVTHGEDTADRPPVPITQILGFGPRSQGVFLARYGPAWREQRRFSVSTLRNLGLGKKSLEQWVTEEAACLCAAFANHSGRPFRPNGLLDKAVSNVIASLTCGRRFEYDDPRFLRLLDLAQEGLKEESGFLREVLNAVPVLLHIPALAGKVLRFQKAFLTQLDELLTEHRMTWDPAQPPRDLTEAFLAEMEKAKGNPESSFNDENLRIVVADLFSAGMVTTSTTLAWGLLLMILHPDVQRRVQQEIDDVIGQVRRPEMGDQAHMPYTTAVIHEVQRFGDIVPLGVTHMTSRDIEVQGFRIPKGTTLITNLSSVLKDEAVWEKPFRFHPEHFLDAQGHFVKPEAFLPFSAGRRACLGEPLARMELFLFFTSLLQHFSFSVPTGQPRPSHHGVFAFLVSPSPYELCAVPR
Chain of Cytochrome P450 2C9 (P11712 whole entry): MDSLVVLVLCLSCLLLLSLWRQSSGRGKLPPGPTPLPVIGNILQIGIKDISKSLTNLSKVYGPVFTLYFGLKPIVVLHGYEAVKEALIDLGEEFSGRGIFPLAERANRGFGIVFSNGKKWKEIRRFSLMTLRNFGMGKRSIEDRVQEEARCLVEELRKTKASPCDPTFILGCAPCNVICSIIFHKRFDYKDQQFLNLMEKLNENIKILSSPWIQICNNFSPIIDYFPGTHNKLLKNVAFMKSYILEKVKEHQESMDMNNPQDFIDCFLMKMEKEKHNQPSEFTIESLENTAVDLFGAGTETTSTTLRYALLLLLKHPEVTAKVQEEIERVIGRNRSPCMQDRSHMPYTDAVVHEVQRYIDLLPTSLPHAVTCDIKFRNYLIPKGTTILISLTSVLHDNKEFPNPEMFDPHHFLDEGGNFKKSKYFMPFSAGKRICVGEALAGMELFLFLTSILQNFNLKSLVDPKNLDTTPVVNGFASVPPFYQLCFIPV

Cc1ncsc1-c1ccc([C@H](CN2CCOCC2)NC(=O)[C@@H]2C[C@@H](O)CN2C(=O)[C@@H](n2cc([C@H]3CC[C@H](CN4CCC(c5ccc6c(c5)-n5c(nc(=O)c7c(Cl)cccc75)C65CCCCC5)CC4)CC3)nn2)C(C)(C)C)cc1
GI50 [1]: > 10 µM | concentration at 24 h [2]: 50 ng/mL | concentration at 24 h [3]: 139 ng/mL | concentration at 24 h [4]: 2290 ng/mL | Cmax [5]: 2420 ng/mL | half-life [6]: > 1 h | Imax [7]: 80% | inhibition in vivo at 10 mg/kg (NCI-H838 [8]): 87% | half-life [9]: > 2 h | IC50 (Cytochrome P450 3A4): > 100 µM | concentration at 6 h [10]: 608 ng/mL | Imax (SK-MEL-28): 55% | concentration at 96 h [11]: 268 ng/mL | GI50 [12]: 0.0048 µM | concentration at 24 h [13]: 400 ng/mL | inhibition in vivo at 30 mg/kg (NCI-H838 [14]): 91% | concentration at 96 h [15]: 6.8 ng/mL | concentration at 168 h [16]: 169 ng/mL | clearance [17]: 22 mL/min/kg | Activity [18]: Non-toxic | IC50 (Cytochrome P450 2C9): > 100 µM | half-life [19]: 8.4 h | IC50 (Cytochrome P450 2B6): > 100 µM | IC50 (Cytochrome P450 2D6): > 100 µM | Imax (SK-MEL-5): 95% | GI50 (NCI-H1792): > 10 µM | Imax [20]: 71% | concentration at 168 h [21]: 19 ng/mL | AUC(0-t) [22]: 1740 ng·h/mL | half-life [23]: > 2 h | concentration at 48 h [24]: 437 ng/mL | Cmax [25]: 2230 ng/mL | GI50 [26]: 0.0095 µM | concentration at 168 h [27]: 932 ng/mL | concentration at 48 h [28]: 437 ng/mL | IC50 [29]: 0.0422 µM
